What was measured:
rat sEH = experiment: IC50 determination for sEH inhibitors; assay type: biochemical; conditions: potency ratio on rat sEH, Table S1
[1] = target: T1, soluble epoxide hydrolase (sEH) (Rattus norvegicus, UniProt P80299); experiment: In vivo displacement assay in rat; conditions: TCU 0.1 mg/kg, second compound 3 mg/kg, oral gavage
T1 sequence (P80299 1-554): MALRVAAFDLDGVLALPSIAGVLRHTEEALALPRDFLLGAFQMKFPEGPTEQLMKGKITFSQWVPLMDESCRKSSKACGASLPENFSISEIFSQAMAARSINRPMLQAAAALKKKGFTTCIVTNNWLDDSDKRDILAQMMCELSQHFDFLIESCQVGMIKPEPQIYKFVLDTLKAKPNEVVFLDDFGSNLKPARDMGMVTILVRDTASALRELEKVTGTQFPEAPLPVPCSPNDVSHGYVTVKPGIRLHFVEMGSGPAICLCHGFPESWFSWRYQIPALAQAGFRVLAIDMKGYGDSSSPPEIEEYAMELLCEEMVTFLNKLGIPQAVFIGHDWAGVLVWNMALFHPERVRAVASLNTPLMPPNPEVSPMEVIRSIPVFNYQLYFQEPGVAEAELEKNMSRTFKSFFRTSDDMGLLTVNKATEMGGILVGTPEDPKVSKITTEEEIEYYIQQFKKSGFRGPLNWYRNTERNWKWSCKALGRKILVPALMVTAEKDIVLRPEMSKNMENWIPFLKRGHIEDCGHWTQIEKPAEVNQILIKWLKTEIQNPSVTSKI

[2] = patients, cited from earlier work

Row | SMILES | fold less potent than TIPU (rat sEH) | displacement of sEH-bound TCU by second compound at 168 h [1] | time until which effect is maintained ([2]; beyond 24 h) [days] | time within which majority is cleared from dosing [2] [h]
1 | CC[C@H](C)C(=O)N1CCC(NC(=O)Nc2c(F)cccc2F)CC1 [DFPU, (S)-1-(2,6-difluorophenyl)-3-(1-(2-methylbutanoyl)piperidin-4-yl)urea] | ~16 666 fold | could not be displaced |  | 
2 | COC(=O)[C@H](c1ccccc1Cl)N1CCc2sccc2C1 [clopidogrel] |  |  | 7 | ≤ 6

Reference: PMC6764161 (ACS Central Science, 2019)
